pIC50: −log10 of the molar value.
These compounds were tested against T1, MAT2A (Homo sapiens, UniProt P31153) (assay: MAT2A biochemical assay (colorimetric inorganic phosphate detection, PiColorLock)). Settings: recombinant His6-tagged MAT2A 1 μg/ml; 60 minutes preincubation at 25° C.; L-Met 80 μM, ATP 100 μM; 60 minutes reaction; read at 623 nm; read-out: MAT2A Inhibition Score.
T1 construct: His6; made in house; host or cells: SF9 insect cells
T1 sequence (P31153 whole entry): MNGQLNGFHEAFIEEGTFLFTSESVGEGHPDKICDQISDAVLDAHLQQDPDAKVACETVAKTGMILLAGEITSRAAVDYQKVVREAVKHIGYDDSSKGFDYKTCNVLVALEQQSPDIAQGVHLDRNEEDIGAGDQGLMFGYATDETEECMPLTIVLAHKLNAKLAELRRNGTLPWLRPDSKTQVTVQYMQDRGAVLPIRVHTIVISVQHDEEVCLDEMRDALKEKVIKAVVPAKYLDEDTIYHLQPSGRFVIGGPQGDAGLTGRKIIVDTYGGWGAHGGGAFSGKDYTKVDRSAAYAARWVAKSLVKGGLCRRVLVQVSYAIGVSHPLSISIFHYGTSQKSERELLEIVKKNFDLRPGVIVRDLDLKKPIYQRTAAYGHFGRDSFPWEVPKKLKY
Protocol: In the reaction catalyzed by MAT2A enzyme, L-Met and ATP were converted to SAM, inorganic phosphate, and inorganic diphosphate. […] The concentration of malachite green phosphomolybdate produced in the detection reaction is thus directly related to the quantity of product produced by the MAT2A enzyme. Multiple commercial kits exist for this method of phosphate detection and quantification, such as PiColorLock Gold (Innova Biosciences). Typical reaction was performed in 50 μl final volume, containing buffer (Tris, pH 8.0, 50 mM KCl, 15 mM MgCl2, 300 uM EDTA, bovine serum albumin at 0.005% w/v) and 1 μg/ml MAT2A. Compounds were added in 1 μl of DMSO at the desired concentration; a typical dose response curve contained ten points with three-fold dilution between compound concentrations. […] The reaction was allowed to proceed for 60 minutes at room temperature then halted by the addition of 13 μl of PiColor Lock reagent. After a further 5 minutes of incubation at room temperature, […] of PiColor Stabilizer was added and the reactions were further incubated at 25° C. for 25 minutes. […] Recombinant MAT2A protein was expressed in SF9 insect cells and purified by metal chelate affinity chromatography, using methods well known in the art. After expression of His6-tagged MAT2A cells were disrupted by 4 passes through an M-Yl 10 Micro fluidizer (Microfluidics) set to 500 psi, and then centrifuged at 22,000 rcf for 20 min at 4° C. The supernatant was harvested and loaded at 15 cm/h on a Histrap FF 5*1 ml column (GE) which was equilibrated with 50 mM Tris, 500 mM NaCl, pH7.4. Host cell contaminants were removed by washing the column with equilibration buffer followed by equilibration buffer containing 20 mM imidazole and 60 mM imidazole to baseline. MAT2A protein was eluted by the addition of buffer containing 250 mM imidazole, dialized into 50 mM NaCl, 50 mM Tris, pH 7.4, flash frozen in liquid nitrogen, and stored at −80° C. until use.
`COc1ccc(-c2c(Nc3cnccn3)[nH]c3c(C4=CCCCC4)c(-c4ccccc4)nn3c2=O)cc1` [Compound 158, 3-cyclohexenyl-6-(4-methoxyphenyl)-2-phenyl-5-(pyrazin-2-ylamino) pyrazolo[1,5-a]pyrimidin-7(4H)-one] was tested, and the pIC50 was > 7.00.
For `COc1ccc(-c2c(Nc3cnc(C#N)cn3)[nH]c3c(C4=CCCCC4)c(-c4ccccc4)nn3c2=O)cc1` [Compound 159, 5-(3-cyclohexenyl-6-(4-methoxyphenyl)-7-oxo-2-phenyl-4,7-dihydropyrazolo[1,5-a]pyrimidin-5-ylamino)pyrazine-2-carbonitrile], the pIC50 was > 7.00.
With `COc1ccc(-c2c(Nc3cnc(N)cn3)[nH]c3c(C4=CCCCC4)c(-c4ccccc4)nn3c2=O)cc1` [Compound 160, 5-((5-aminopyrazin-2-yl)amino)-3-(cyclohex-1-en-1-yl)-6-(4-methoxyphenyl)-2-phenylpyrazolo[1,5-a]pyrimidin-7(4H)-one] the pIC50 was > 7.00.
In the case of `COc1ccc(-c2c(Nc3nccnn3)[nH]c3c(C4=CCCCC4)c(-c4ccccc4)nn3c2=O)cc1` [Compound 161, 5-((1,2,4-triazin-3-yl)amino)-3-(cyclohex-1-en-1-yl)-6-(4-methoxyphenyl)-2-phenylpyrazolo[1,5-a]pyrimidin-7(4H)-one], the pIC50 was > 7.00.
`COc1ccc(-c2c(Nc3cnncn3)[nH]c3c(C4=CCCCC4)c(-c4ccccc4)nn3c2=O)cc1` [Compound 162, 5-((1,2,4-triazin-5-yl)amino)-3-(cyclohex-1-en-1-yl)-6-(4-methoxyphenyl)-2-phenylpyrazolo[1,5-a]pyrimidin-7(4H)-one] was tested, and the pIC50 was > 7.00.
`COc1ccc(-c2c(Nc3ncncn3)[nH]c3c(C4=CCCCC4)c(-c4ccccc4)nn3c2=O)cc1` [Compound 163, 5-((1,3,5-triazin-2-yl)amino)-3-(cyclohex-1-en-1-yl)-6-(4-methoxyphenyl)-2-phenylpyrazolo[1,5-a]pyrimidin-7(4H)-one] was tested, and the pIC50 was > 7.00.
`COc1ccc(-c2c(Nc3ncnc(N)n3)[nH]c3c(C4=CCCCC4)c(-c4ccccc4)nn3c2=O)cc1` [Compound 164, 5-((4-amino-1,3,5-triazin-2-yl)amino)-3-(cyclohex-1-en-1-yl)-6-(4-methoxyphenyl)-2-phenylpyrazolo[1,5-a]pyrimidin-7(4H)-one] was tested, and the pIC50 was > 7.00.
For `COc1ccc(-c2c(Nc3ccon3)[nH]c3c(C4=CCCCC4)c(-c4ccccc4)nn3c2=O)cc1` [Compound 165, 3-(cyclohex-1-en-1-yl)-5-(isoxazol-3-ylamino)-6-(4-methoxyphenyl)-2-phenylpyrazolo[1,5-a]pyrimidin-7(4H)-one], the pIC50 was > 7.00.
With `COc1ccc(-c2c(Nc3ncns3)[nH]c3c(C4=CCCCC4)c(-c4ccccc4)nn3c2=O)cc1` [Compound 166, 5-((1,2,4-thiadiazol-5-yl)amino)-3-(cyclohex-1-en-1-yl)-6-(4-methoxyphenyl)-2-phenylpyrazolo[1,5-a]pyrimidin-7(4H)-one] the pIC50 was > 7.00.
For `COc1ccc(-c2c(Nc3nncs3)[nH]c3c(C4=CCCCC4)c(-c4ccccc4)nn3c2=O)cc1` [Compound 167, 5-((1,3,4-thiadiazol-2-yl)amino)-3-(cyclohex-1-en-1-yl)-6-(4-methoxyphenyl)-2-phenylpyrazolo[1,5-a]pyrimidin-7(4H)-one], the pIC50 was > 7.00.
In the case of `O=c1c(-c2ccc3ncccc3c2)c(Nc2ccccn2)[nH]c2c(-c3ccccc3)c(-c3ccccc3)nn12` [Compound 168, 2,3-diphenyl-5-(pyridin-2-ylamino)-6-(quinolin-6-yl)pyrazolo[1,5-a]pyrimidin-7(4H)-one], the pIC50 was > 7.00.
In the case of `O=c1c(-c2ccc3ncccc3c2)c(Nc2ccncn2)[nH]c2c(-c3ccccc3)c(-c3ccccc3)nn12` [Compound 169, 2,3-diphenyl-5-(pyrimidin-4-ylamino)-6-(quinolin-6-yl)pyrazolo[1,5-a]pyrimidin-7(4H)-one], the pIC50 was > 7.00.
For `O=c1c(-c2ccc3ncccc3c2)c(Nc2ccon2)[nH]c2c(-c3ccccc3)c(-c3ccccc3)nn12` [Compound 170, 5-(isoxazol-3-ylamino)-2,3-diphenyl-6-(quinolin-6-yl)pyrazolo[1,5-a]pyrimidin-7(4H)-one], the pIC50 was > 7.00.
For `CCOC(=O)c1nnc(Nc2[nH]c3c(-c4ccccc4)c(-c4ccccc4)nn3c(=O)c2-c2ccc3ncccc3c2)o1` [Compound 171, ethyl 5-((7-oxo-2,3-diphenyl-6-(quinolin-6-yl)-4,7-dihydropyrazolo[1,5-a]pyrimidin-5-yl)amino)-1,3,4-oxadiazole-2-carboxylate], the pIC50 was > 7.00.
For `CC(=O)Nc1[nH]c2c(-c3ccccc3)c(-c3ccccc3)nn2c(=O)c1-c1ccc2ncccc2c1` [Compound 172, N-(7-oxo-2,3-diphenyl-6-(quinolin-6-yl)-4,7-dihydropyrazolo[1,5-a]pyrimidin-5-yl)acetamide], the pIC50 was > 7.00.
In the case of `O=C(CO)Nc1[nH]c2c(-c3ccccc3)c(-c3ccccc3)nn2c(=O)c1-c1ccc2ncccc2c1` [Compound 173, 2-hydroxy-N-(7-oxo-2,3-diphenyl-6-(quinolin-6-yl)-4,7-dihydropyrazolo[1,5-a]pyrimidin-5-yl)acetamide], the pIC50 was > 7.00.
`O=c1c(-c2ccc3ncccc3c2)c(Nc2ccccn2)[nH]c2c(C3=CCCCC3)c(-c3ccccc3)nn12` [Compound 174, 3-cyclohexenyl-2-phenyl-5-(pyridin-2-ylamino)-6-(quinolin-6-yl)pyrazolo[1,5-a]pyrimidin-7(4H)-one] was tested, and the pIC50 was > 7.00.
`O=c1c(-c2ccc3ncccc3c2)c(Nc2cnccn2)[nH]c2c(C3=CCCCC3)c(-c3ccccc3)nn12` [Compound 175, 3-cyclohexenyl-2-phenyl-5-(pyrazin-2-ylamino)-6-(quinolin-6-yl)pyrazolo[1,5-a]pyrimidin-7(4H)-one] was tested, and the pIC50 was > 7.00.
With `O=c1c(-c2ccc3ncccc3c2)c(Nc2ccon2)[nH]c2c(C3=CCCCC3)c(-c3ccccc3)nn12` [Compound 176, 3-cyclohexenyl-5-(isoxazol-3-ylamino)-2-phenyl-6-(quinolin-6-yl)pyrazolo[1,5-a]pyrimidin-7(4H)-one] the pIC50 was > 7.00.
With `O=c1c(-c2ccc3nccnc3c2)c(Nc2ccon2)[nH]c2c(C3=CCCCC3)c(-c3ccccc3)nn12` [Compound 177, 3-(cyclohex-1-en-1-yl)-5-(isoxazol-3-ylamino)-2-phenyl-6-(quinoxalin-6-yl)pyrazolo[1,5-a]pyrimidin-7(4H)-one] the pIC50 was > 7.00.
`COc1ccc(-c2c(Nc3ccccn3)[nH]c3c(-c4cccc(Cl)c4)c(-c4ccccc4)nn3c2=O)cc1` [Compound 178, 3-(3-chlorophenyl)-6-(4-methoxyphenyl)-2-phenyl-5-(pyridin-2-ylamino)pyrazolo[1,5-a]pyrimidin-7(4H)-one] was tested, and the pIC50 was > 7.00.
`COc1ccc(-c2c(Nc3ccccn3)[nH]c3c(-c4ccccc4F)c(-c4ccccc4)nn3c2=O)cc1` [Compound 179, 3-(2-fluorophenyl)-6-(4-methoxyphenyl)-2-phenyl-5-(pyridin-2-ylamino)pyrazolo[1,5-a]pyrimidin-7(4H)-one] was tested, and the pIC50 was > 7.00.
`COc1ccc(-c2c(Nc3ccccn3)[nH]c3c(-c4ccccc4)c(-c4ccccn4)nn3c2=O)cc1` [Compound 180, 6-(4-methoxyphenyl)-3-phenyl-2-(pyridin-2-yl)-5-(pyridin-2-ylamino)pyrazolo[1,5-a]pyrimidin-7(4H)-one] was tested, and the pIC50 was > 7.00.
In the case of `COc1ccc(-c2c(Nc3ccccn3)[nH]c3c(N4CCCCC4)c(-c4ccccc4)nn3c2=O)cc1` [Compound 181, 6-(4-methoxyphenyl)-2-phenyl-3-(piperidin-1-yl)-5-(pyridin-2-ylamino)pyrazolo[1,5-a]pyrimidin-7(4H)-one], the pIC50 was > 7.00.
In the case of `COc1ccc(-c2c(Nc3cc[nH]n3)[nH]c3c(-c4ccccc4)c(-c4ccccc4)nn3c2=O)cc1` [Compound 182, 5-((1H-pyrazol-3-yl)amino)-6-(4-methoxyphenyl)-2,3-diphenylpyrazolo[1,5-a]pyrimidin-7(4H)-one], the pIC50 was > 7.00.
With `COc1ccc(-c2c(Nc3cc(OC)[nH]n3)[nH]c3c(-c4ccccc4)c(-c4ccccc4)nn3c2=O)cc1` [Compound 183, 5-((5-methoxy-1H-pyrazol-3-yl)amino)-6-(4-methoxyphenyl)-2,3-diphenylpyrazolo[1,5-a]pyrimidin-7(4H)-one] the pIC50 was > 7.00.
For `COc1ccc(-c2c(Nc3c[nH]cn3)[nH]c3c(-c4ccccc4)c(-c4ccccc4)nn3c2=O)cc1` [Compound 184, 5-((1H-imidazol-4-yl)amino)-6-(4-methoxyphenyl)-2,3-diphenylpyrazolo[1,5-a]pyrimidin-7(4H)-one], the pIC50 was > 7.00.
In the case of `COc1ccc(-c2c(Nc3cn[nH]n3)[nH]c3c(-c4ccccc4)c(-c4ccccc4)nn3c2=O)cc1` [Compound 185, 5-((2H-1,2,3-triazol-4-yl)amino)-6-(4-methoxyphenyl)-2,3-diphenylpyrazolo[1,5-a]pyrimidin-7(4H)-one], the pIC50 was > 7.00.

From patent US10800782B2, “Inhibitors of cellular metabolic processes” (Agios Pharmaceuticals, Inc., priority 2016, dated 2020)
